The target in experiment [1] is T1, SMARCA2 (Homo sapiens, UniProt P51531).
T1 construct: SMARCA2-HiBiT knock-in Hela monoclonal cell (CS302366); host or cells: HeLa (CRISPR HiBiT knock-in monoclonal line, heterozygous)
Kind of experiment: SMARCA2 HiBiT degradation assay in HeLa cells. In kind it is cell-based. The settings on record: 18 hours; for DC50: read-out: SMARCA2 IC50; for Dmax: HeLa. An outline of the steps: (§1)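 Degradation measured as HiBiT luminescence (Nano-Glo lytic reagent) after 18 h compound exposure at 37° C. Cells were HeLa clones carrying heterozygous HiBiT tags on SMARCA2 or SMARCA4, 2500 per well; compounds at 3-fold serial dilution from 10 μM.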
In general terms: HiBiT is a short tag that completes a luciferase, so light tracks the accessible tagged protein.

The target in experiment [2] is T2, SMARCA4 (Homo sapiens, UniProt P51532).
T2 construct: SMARCA4-HiBiT knock-in Hela monoclonal cell (CS3023226) were purchased from Promega; host or cells: HeLa (CRISPR HiBiT knock-in monoclonal line, heterozygous)
T2 sequence (P51532 whole entry): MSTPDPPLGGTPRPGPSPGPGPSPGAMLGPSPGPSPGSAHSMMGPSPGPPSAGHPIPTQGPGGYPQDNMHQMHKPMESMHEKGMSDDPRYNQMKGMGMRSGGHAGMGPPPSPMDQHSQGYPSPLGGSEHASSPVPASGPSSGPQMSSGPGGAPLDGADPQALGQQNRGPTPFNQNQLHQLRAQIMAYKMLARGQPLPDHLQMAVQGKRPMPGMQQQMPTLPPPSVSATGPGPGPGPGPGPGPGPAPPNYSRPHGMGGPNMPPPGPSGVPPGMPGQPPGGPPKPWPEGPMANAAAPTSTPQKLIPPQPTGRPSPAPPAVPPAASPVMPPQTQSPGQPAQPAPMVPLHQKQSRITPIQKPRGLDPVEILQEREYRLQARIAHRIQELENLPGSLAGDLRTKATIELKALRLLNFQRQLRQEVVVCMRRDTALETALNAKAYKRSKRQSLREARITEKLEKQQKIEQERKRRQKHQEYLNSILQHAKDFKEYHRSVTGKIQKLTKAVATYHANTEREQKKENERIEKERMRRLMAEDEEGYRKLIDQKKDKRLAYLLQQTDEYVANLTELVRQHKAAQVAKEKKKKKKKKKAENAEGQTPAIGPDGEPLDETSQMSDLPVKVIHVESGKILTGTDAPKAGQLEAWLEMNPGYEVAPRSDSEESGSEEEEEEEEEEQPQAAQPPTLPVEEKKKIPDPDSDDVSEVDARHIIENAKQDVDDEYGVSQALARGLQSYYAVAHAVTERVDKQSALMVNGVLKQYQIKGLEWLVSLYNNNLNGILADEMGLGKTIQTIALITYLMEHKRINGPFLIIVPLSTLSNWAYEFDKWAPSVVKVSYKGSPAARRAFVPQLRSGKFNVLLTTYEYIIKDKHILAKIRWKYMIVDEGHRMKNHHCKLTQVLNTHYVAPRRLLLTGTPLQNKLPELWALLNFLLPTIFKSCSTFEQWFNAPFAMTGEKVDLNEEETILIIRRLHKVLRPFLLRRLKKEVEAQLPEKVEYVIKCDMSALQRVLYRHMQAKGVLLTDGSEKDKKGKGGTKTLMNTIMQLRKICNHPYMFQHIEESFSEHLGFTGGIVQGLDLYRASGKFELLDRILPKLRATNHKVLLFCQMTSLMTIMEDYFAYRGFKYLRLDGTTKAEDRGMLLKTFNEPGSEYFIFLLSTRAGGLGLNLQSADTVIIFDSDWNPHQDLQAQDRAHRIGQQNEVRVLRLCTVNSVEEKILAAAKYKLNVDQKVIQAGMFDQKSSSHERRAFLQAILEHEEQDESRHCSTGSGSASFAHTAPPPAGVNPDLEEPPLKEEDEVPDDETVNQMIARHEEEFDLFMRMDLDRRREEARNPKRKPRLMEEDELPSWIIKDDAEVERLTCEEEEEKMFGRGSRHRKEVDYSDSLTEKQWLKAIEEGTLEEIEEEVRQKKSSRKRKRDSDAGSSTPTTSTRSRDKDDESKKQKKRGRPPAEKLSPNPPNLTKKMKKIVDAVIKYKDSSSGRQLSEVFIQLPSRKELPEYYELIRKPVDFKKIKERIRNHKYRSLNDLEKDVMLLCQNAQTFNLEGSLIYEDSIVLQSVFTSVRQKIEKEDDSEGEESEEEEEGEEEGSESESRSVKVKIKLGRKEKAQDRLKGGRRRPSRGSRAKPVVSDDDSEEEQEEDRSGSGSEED
The experiment is described as follows: SMARCA4 HiBiT degradation assay in HeLa cells. In kind it is cell-based. The settings on record: 18 hours; for Dmax: HeLa. An outline of the steps:
as §1

T1 sequence (P51531 whole entry): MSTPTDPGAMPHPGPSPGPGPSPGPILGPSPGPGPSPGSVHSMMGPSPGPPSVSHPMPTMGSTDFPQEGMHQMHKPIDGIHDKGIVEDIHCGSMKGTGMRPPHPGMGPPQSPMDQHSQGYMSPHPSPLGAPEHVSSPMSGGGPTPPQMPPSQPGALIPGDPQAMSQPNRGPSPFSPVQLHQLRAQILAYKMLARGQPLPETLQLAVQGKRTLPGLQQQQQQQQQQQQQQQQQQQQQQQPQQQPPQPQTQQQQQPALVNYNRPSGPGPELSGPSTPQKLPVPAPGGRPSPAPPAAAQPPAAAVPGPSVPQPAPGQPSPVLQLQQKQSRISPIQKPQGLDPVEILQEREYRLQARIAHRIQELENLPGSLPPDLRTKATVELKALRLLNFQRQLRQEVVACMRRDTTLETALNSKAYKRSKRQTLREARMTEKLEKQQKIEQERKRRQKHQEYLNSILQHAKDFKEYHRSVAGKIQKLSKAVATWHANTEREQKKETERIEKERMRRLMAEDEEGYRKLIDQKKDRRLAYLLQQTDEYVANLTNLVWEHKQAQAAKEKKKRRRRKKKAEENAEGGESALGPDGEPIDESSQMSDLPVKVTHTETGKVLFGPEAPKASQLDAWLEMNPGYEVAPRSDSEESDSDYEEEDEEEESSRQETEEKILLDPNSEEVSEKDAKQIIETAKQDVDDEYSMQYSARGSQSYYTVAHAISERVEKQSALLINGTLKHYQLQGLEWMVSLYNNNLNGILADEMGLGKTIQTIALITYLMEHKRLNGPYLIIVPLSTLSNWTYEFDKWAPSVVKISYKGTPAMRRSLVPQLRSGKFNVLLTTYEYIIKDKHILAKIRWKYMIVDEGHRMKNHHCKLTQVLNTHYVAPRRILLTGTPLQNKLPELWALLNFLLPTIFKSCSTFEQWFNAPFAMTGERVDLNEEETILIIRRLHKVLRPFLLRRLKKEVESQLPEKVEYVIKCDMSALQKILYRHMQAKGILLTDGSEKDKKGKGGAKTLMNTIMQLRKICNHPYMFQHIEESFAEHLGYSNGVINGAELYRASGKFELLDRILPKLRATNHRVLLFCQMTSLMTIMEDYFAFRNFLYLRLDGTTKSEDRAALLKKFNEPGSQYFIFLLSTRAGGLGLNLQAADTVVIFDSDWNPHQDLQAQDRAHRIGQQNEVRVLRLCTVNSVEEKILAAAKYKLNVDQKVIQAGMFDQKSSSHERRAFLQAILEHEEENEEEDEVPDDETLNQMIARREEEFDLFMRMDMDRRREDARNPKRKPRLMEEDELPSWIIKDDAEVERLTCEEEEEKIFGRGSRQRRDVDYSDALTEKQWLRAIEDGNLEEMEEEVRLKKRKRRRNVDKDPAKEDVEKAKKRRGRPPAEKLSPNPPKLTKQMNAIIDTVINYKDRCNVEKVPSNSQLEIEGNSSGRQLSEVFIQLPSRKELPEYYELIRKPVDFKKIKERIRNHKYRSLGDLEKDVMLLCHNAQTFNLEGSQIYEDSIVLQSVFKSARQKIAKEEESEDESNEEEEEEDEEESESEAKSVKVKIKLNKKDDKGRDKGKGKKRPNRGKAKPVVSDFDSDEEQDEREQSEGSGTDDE

On to `C[C@@H]1C[C@H](CN2CCN(c3ccc4c(c3)C(=O)N([C@H]3CCC(=O)NC3=O)C4)CC2)C[C@H](C)N1C(=O)N1CCN2c3cc(-c4cccc(F)c4O)nnc3NC[C@]2(C(F)F)C1` [Example 72, (S)-3-(6-(4-(((2R,4R,6S)-1-((R)-6a-(difluoromethyl)-2-(3-fluoro-2-hydroxyphenyl)-6,6a,7,8,9,10-hexahydro-5H-pyrazino[1′,2′:4,5]pyrazino[2,3-c]pyridazine-8-carbonyl)-2,6-dimethylpiperidin-4-yl)methyl)piperazin-1-yl)-1-oxoisoindolin-2-yl)piperidine-2,6-dione], for which, in experiment [1], the DC50 is less than 100 nM and the Dmax (usually the greatest extent of degradation seen) was more than 75%. In experiment [2], this molecule had a DC50 of less than 100 nM and a Dmax of more than 75%.
For the molecule `CC1(C)CC(CN2CCN(c3ccc4c(c3)C(=O)N([C@H]3CCC(=O)NC3=O)C4)CC2)CCN1C(=O)N1CCN2c3cc(-c4cccc(F)c4O)nnc3NC[C@@]2(C(F)F)C1` (stereo partly drawn) [Example 73, (3S)-3-(6-(4-((1-((S)-6a-(difluoromethyl)-2-(3-fluoro-2-hydroxyphenyl)-6,6a,7,8,9,10-hexahydro-5H-pyrazino[1′,2′:4,5]pyrazino[2,3-c]pyridazine-8-carbonyl)-2,2-dimethylpiperidin-4-yl)methyl)piperazin-1-yl)-1-oxoisoindolin-2-yl)piperidine-2,6-dione], in experiment [1], the DC50 was less than 100 nM and the Dmax is more than 75%. In experiment [2], this molecule returned a DC50 of 100 to 1000 nM and a Dmax of less than 50%.
Consider `O=C1CCC(N2Cc3ccc(N4CCN(C[C@H]5CC[C@H](C(=O)N6CCN7c8cc(-c9cccc(F)c9O)nnc8NC[C@H]7C6)CC5)CC4)cc3C2=O)C(=O)N1` (stereo partly drawn) [Example 104, 3-(6-(4-(((1S,4r)-4-((S)-2-(3-fluoro-2-hydroxyphenyl)-6,6a,7,8,9,10-hexahydro-5H-pyrazino[1′,2′:4,5]pyrazino[2,3-c]pyridazine-8-carbonyl)cyclohexyl)methyl)piperazin-1-yl)-1-oxoisoindolin-2-yl)piperidine-2,6-dione], for which, in experiment [1], the DC50 was less than 100 nM and the Dmax was more than 75%. In addition, in experiment [2], the DC50 lay in the range of 100 to 1000 nM and the greatest degradation seen (Dmax) is less than 50%.
As to `O=C1CC[C@H](N2Cc3ccc(N4CCC(CN5CCC(F)(C(=O)N6CCN7c8cc(-c9cc(F)cc(F)c9O)nnc8NC[C@]7(C(F)F)C6)CC5)CC4)cc3C2=O)C(=O)N1` [Example 105, (S)-3-(6-(4-((4-((R)-2-(3,5-difluoro-2-hydroxyphenyl)-6a-(difluoromethyl)-6,6a,7,8,9,10-hexahydro-5H-pyrazino[1′,2′:4,5]pyrazino[2,3-c]pyridazine-8-carbonyl)-4-fluoropiperidin-1-yl)methyl)piperidin-1-yl)-1-oxoisoindolin-2-yl)piperidine-2,6-dione], the DC50 in experiment [1] and in experiment [2] was less than 100 nM in each case. Further, the Dmax in experiment [1] is more than 75%; in experiment [2], 50 to 75%.
Turning to `O=C1CC[C@H](N2Cc3ccc(N4CCN(C[C@H]5CC[C@H](CN6CCN7c8cc(-c9cccc(F)c9O)nnc8NC[C@H]7C6)CC5)CC4)cc3C2=O)C(=O)N1` [Example 114, (S)-3-(6-(4-(((1S,4S)-4-(((S)-2-(3-fluoro-2-hydroxyphenyl)-5,6,6a,7,9,10-hexahydro-8H-pyrazino[1′,2′:4,5]pyrazino[2,3-c]pyridazin-8-yl)methyl)cyclohexyl)methyl)piperazin-1-yl)-1-oxoisoindolin-2-yl)piperidine-2,6-dione], the DC50 in experiment [1] and in experiment [2] was less than 100 nM in each case. For the same molecule, the Dmax in experiment [1] is more than 75%; in experiment [2] it was 50 to 75%.
Consider `CC1(C)CN(CC2CCN(c3ccc4c(c3)C(=O)N(C3CCC(=O)NC3=O)C4)CC2)CCC1C(=O)N1CCN2c3cc(-c4cc(F)cc(F)c4O)nnc3NC[C@H]2C1` (stereo partly drawn) [Example 119, 3-(6-(4-((4-((S)-2-(3,5-difluoro-2-hydroxyphenyl)-6,6a,7,8,9,10-hexahydro-5H-pyrazino[1′,2′:4,5]pyrazino[2,3-c]pyridazine-8-carbonyl)-3,3-dimethylpiperidin-1-yl)methyl)piperidin-1-yl)-1-oxoisoindolin-2-yl)piperidine-2,6-dione], for which, in experiment [1], the DC50 is less than 100 nM and the Dmax is more than 75%. In experiment [2], this molecule returned a DC50 of 100 to 1000 nM and a Dmax of less than 50%.
Regarding `CC1(C)CC(CN2CCN(c3ccc4c(c3)C(=O)N(C3CCC(=O)NC3=O)C4)CC2)CCN1C(=O)N1CCN2c3cc(-c4cccc(F)c4O)nnc3NC[C@H]2C1` (stereo partly drawn) [Example 122, 3-(6-(4-((1-((S)-2-(3-fluoro-2-hydroxyphenyl)-6,6a,7,8,9,10-hexahydro-5H-pyrazino[1′,2′:4,5]pyrazino[2,3-c]pyridazine-8-carbonyl)-2,2-dimethylpiperidin-4-yl)methyl)piperazin-1-yl)-1-oxoisoindolin-2-yl)piperidine-2,6-dione], in experiment [1], the DC50 was less than 100 nM and the Dmax is more than 75%. Further, in experiment [2], the DC50 was less than 100 nM and the Dmax was in the range of 50 to 75%.

These data come from US20230365576A1, “BRM Targeting Compounds And Associated Methods Of Use” (Prelude Therapeutics Incorporated, priority 2022, published 2023).
